Experimental data published in ChEMBL document CHEMBL3785036 (J Pharm Sci, 1974).

Tests used:
Assay type in all cases: ADME, organism-based
[1] = Drug excretion in human subject slow inactivator assessed as sum of isoniazid plus hydrazones, acetylisoniazid, isonicotinic acid and isonicotinuric acid level in urine at 681 mg, iv infused at constant rate 5.4 min measured 524 mins after start of drug injection by colorimetry; conditions: in vivo
[2] = Drug excretion in human subject rapid inactivator assessed as total isonicotinoyl compound level in urine at 670 mg, iv infused at constant rate 5.2min measured 335 mins after start of drug injection by colorimetry; conditions: in vivo
[3] = Drug excretion in human subject slow inactivator assessed as total isonicotinoyl compound level in urine at 681 mg, iv infused at constant rate 5.4 min measured 554 mins after start of drug injection by colorimetry; conditions: in vivo
[4] = Drug excretion in human subject rapid inactivator assessed as sum of isoniazid plus hydrazones, acetylisoniazid, isonicotinic acid and isonicotinuric acid level in urine at 670 mg, iv infused at constant rate 5.2min measured 516 mins after start of drug injection by colorimetry; conditions: in vivo
[5] = Drug excretion in human subject slow inactivator assessed as sum of isoniazid plus hydrazones, acetylisoniazid, isonicotinic acid and isonicotinuric acid level in urine at 681 mg, iv infused at constant rate 5.4 min measured 586 mins after start of drug injection by colorimetry; conditions: in vivo
[6] = Drug excretion in human subject slow inactivator assessed as sum of isoniazid plus hydrazones, acetylisoniazid, isonicotinic acid and isonicotinuric acid level in urine at 681 mg, iv infused at constant rate 5.4 min measured 208.7 mins after start of drug injection by colorimetry; conditions: in vivo, 3.47833 h
[7] = Drug excretion in human subject rapid inactivator assessed as total isonicotinoyl compound level in urine at 670 mg, iv infused at constant rate 5.2min measured 62 mins after start of drug injection by colorimetry; conditions: in vivo
[8] = Drug excretion in human subject rapid inactivator assessed as total isonicotinoyl compound level in urine at 670 mg, iv infused at constant rate 5.2min measured 195 mins after start of drug injection by colorimetry; conditions: in vivo, 3.25 h
[9] = Drug excretion in human subject slow inactivator assessed as sum of isoniazid plus hydrazones, acetylisoniazid, isonicotinic acid and isonicotinuric acid level in urine at 681 mg, iv infused at constant rate 5.4 min measured 396 mins after start of drug injection by colorimetry; conditions: in vivo, 6.6 h
[10] = Drug excretion in human subject slow inactivator assessed as total isonicotinoyl compound level in urine at 681 mg, iv infused at constant rate 5.4 min measured 496 mins after start of drug injection by colorimetry; conditions: in vivo
[11] = Drug excretion in human subject slow inactivator assessed as sum of isoniazid plus hydrazones, acetylisoniazid, isonicotinic acid and isonicotinuric acid level in urine at 681 mg, iv infused at constant rate 5.4 min measured 116 mins after start of drug injection by colorimetry; conditions: in vivo
[12] = Drug excretion in human slow inactivators urine assessed as total isonicotinoyl compounds at 1 g, iv by colorimetry; conditions: in vivo
[13] = Drug metabolism in human rapid inactivators assessed as excretion of alpha-ketoglutaric acid isonicotinoylhydrazone in urine at 1 g, iv by colorimetry; conditions: in vivo
[14] = Drug metabolism in human slow inactivators assessed as excretion of isonicotinuric acid in urine at 1 g, iv by colorimetry; conditions: in vivo
[15] = Drug excretion in human subject slow inactivator assessed as total isonicotinoyl compound level in urine at 681 mg, iv infused at constant rate 5.4 min measured 613 mins after start of drug injection by colorimetry; conditions: in vivo
[16] = Drug excretion in human subject slow inactivator assessed as total isonicotinoyl compound level in urine at 681 mg, iv infused at constant rate 5.4 min measured 396 mins after start of drug injection by colorimetry; conditions: in vivo, 6.6 h
[17] = Drug metabolism in human rapid inactivators assessed as excretion of 1,2-diacetylhydrazine in urine at 1 g, iv by colorimetry; conditions: in vivo
[18] = Drug excretion in human subject rapid inactivator assessed as sum of isoniazid plus hydrazones, acetylisoniazid, isonicotinic acid and isonicotinuric acid level in urine at 670 mg, iv infused at constant rate 5.2min measured 486 mins after start of drug injection by colorimetry; conditions: in vivo, 8.1 h
[19] = Drug metabolism in human rapid inactivators assessed as excretion of isonicotinic acid in urine at 1 g, iv by colorimetry; conditions: in vivo
[20] = Drug excretion in human subject rapid inactivator assessed as total isonicotinoyl compound level in urine at 670 mg, iv infused at constant rate 5.2min measured 486 mins after start of drug injection by colorimetry; conditions: in vivo, 8.1 h
[21] = Drug excretion in human subject slow inactivator assessed as total isonicotinoyl compound level in urine at 681 mg, iv infused at constant rate 5.4 min measured 208.7 mins after start of drug injection by colorimetry; conditions: in vivo, 3.47833 h
[22] = Drug excretion in human subject rapid inactivator assessed as sum of isoniazid plus hydrazones, acetylisoniazid, isonicotinic acid and isonicotinuric acid level in urine at 670 mg, iv infused at constant rate 5.2min measured 458 mins after start of drug injection by colorimetry; conditions: in vivo
[23] = Drug metabolism in human slow inactivators assessed as excretion of acetylisoniazid in urine at 1 g, iv by colorimetry; conditions: in vivo
[24] = Drug excretion in human slow inactivators urine at 1 g, iv by colorimetry; conditions: in vivo
[25] = Drug excretion in human subject slow inactivator assessed as sum of isoniazid plus hydrazones, acetylisoniazid, isonicotinic acid and isonicotinuric acid level in urine at 681 mg, iv infused at constant rate 5.4 min measured 430.2 mins after start of drug injection by colorimetry; conditions: in vivo, 7.17 h
[26] = Drug excretion in human subject slow inactivator assessed as sum of isoniazid plus hydrazones, acetylisoniazid, isonicotinic acid and isonicotinuric acid level in urine at 681 mg, iv infused at constant rate 5.4 min measured 35.5 mins after start of drug injection by colorimetry; conditions: in vivo
[27] = Drug excretion in human subject slow inactivator assessed as total isonicotinoyl compound level in urine at 681 mg, iv infused at constant rate 5.4 min measured 243.5 mins after start of drug injection by colorimetry; conditions: in vivo
[28] = Drug excretion in human rapid inactivators urine at 1 g, iv by colorimetry; conditions: in vivo
[29] = Drug excretion in human subject slow inactivator assessed as total isonicotinoyl compound level in urine at 681 mg, iv infused at constant rate 5.4 min measured 276.3 mins after start of drug injection by colorimetry; conditions: in vivo, 4.605 h
[30] = Drug excretion in human subject rapid inactivator assessed as total isonicotinoyl compound level in urine at 670 mg, iv infused at constant rate 5.2min measured 400 mins after start of drug injection by colorimetry; conditions: in vivo
[31] = Drug excretion in human rapid inactivators urine assessed as total isonicotinoyl compounds at 1 g, iv by colorimetry; conditions: in vivo
[32] = Drug excretion in human subject slow inactivator assessed as sum of isoniazid plus hydrazones, acetylisoniazid, isonicotinic acid and isonicotinuric acid level in urine at 681 mg, iv infused at constant rate 5.4 min measured 554 mins after start of drug injection by colorimetry; conditions: in vivo
[33] = Drug excretion in human subject slow inactivator assessed as total isonicotinoyl compound level in urine at 681 mg, iv infused at constant rate 5.4 min measured 430.2 mins after start of drug injection by colorimetry; conditions: in vivo, 7.17 h
[34] = Drug excretion in human subject slow inactivator assessed as total isonicotinoyl compound level in urine at 681 mg, iv infused at constant rate 5.4 min measured 710 mins after start of drug injection by colorimetry; conditions: in vivo

Drug excretion [1]: 11.32 mg
Drug excretion [2]: 29.6 mg
Drug excretion [3]: 13.1 mg
Drug excretion [4]: 16.8 mg
Drug excretion [5]: 13.18 mg
Drug excretion [6]: 28.41 mg
Drug excretion [7]: 43.3 mg
Drug excretion [8]: 59.9 mg
Drug excretion [9]: 17.18 mg
Drug excretion [10]: 13.5 mg
Drug excretion [11]: 32.27 mg
Drug excretion [12]: 98.8%
Drug metabolism [13]: 1.4 %molar
Drug metabolism [14]: 14.2 %molar
Drug excretion [15]: 12.2 mg
Drug excretion [16]: 16.5 mg
Drug metabolism [17]: 48.4 %molar
Drug excretion [18]: 13 mg
Drug metabolism [19]: 27.1 %molar
Drug excretion [20]: 12.5 mg
Drug excretion [21]: 27.1 mg
Drug excretion [22]: 17.3 mg
Drug metabolism [23]: 34.3 %molar
Drug excretion [24]: 12.7 %molar
Drug excretion [25]: 21.24 mg
Drug excretion [26]: 44.45 mg
Drug excretion [27]: 36.2 mg
Drug excretion [28]: 3.6 %molar
Drug excretion [29]: 33.2 mg
Drug excretion [30]: 18.5 mg
Drug excretion [31]: 98.8%
Drug excretion [32]: 13.38 mg
Drug excretion [33]: 20 mg
Drug excretion [34]: 9.25 mg
SMILES: NNC(=O)c1ccncc1 [ISONIAZID]
